According to patent US8431704B2, “Quinoline or isoquinoline substituted P2X7 antagonists” (Janssen Pharmaceutica NV, priority 2008, dated 2013):

target: T1, hP2X7 (Homo sapiens, UniProt Q99572); assay: P2X7 antagonism: ligand-induced Ca2+ flux in 1321N1 astrocytoma cells overexpressing hP2X7; format: cell-based; conditions: pIC50 = -log(IC50), read-out: hP2RX7pIC50 (mean pIC50 values) (converted)
T1 construct: expressed in transfected cells; host or cells: 1321N1 astrocytoma cells
T1 sequence (Q99572 1-595): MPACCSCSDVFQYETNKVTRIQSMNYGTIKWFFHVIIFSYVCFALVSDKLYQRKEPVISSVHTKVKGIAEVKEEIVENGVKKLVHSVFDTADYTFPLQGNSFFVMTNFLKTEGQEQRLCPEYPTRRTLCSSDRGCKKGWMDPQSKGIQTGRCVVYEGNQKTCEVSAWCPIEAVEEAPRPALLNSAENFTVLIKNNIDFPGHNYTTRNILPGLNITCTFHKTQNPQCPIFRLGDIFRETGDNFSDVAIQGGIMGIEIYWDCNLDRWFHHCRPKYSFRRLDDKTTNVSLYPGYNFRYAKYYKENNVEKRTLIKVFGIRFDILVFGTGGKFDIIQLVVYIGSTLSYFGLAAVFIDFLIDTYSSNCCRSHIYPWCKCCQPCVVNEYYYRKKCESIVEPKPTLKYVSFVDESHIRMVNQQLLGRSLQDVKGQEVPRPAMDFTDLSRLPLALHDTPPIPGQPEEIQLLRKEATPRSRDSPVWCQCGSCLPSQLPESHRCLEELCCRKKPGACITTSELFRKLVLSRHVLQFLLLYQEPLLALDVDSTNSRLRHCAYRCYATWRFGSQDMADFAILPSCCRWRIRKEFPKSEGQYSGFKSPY
Procedure, shortened: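 Intracellular Ca2+ tracked with a quenched Ca2+-sensitive fluorescent dye kit (excitation 488 nm, emission 510-560 nm) in 1321N1 cells, before and after agonist addition in presence of antagonist. Effects expressed as % control and IC50.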

IC50 [nM]	SMILES
75.9	CCc1ncc(C(CNC(=O)c2cccc3nc(N4CCCC4)ccc23)N2CCC(F)(F)CC2)cn1 (centres unmarked) [Compound 282]
115	O=C(NCC(c1cnc(-c2ccccc2)nc1)N1CCC(F)(F)CC1)c1cccc2nc(N3CCCC3)ccc12 (centres unmarked) [Compound 283]
67.6	CC(C)Oc1ncc(C(CNC(=O)c2cccc3nc(N4CCCC4)ccc23)N2CCOCC2)cn1 (centres unmarked) [Compound 284]
158	CC(C)N1CCN(c2ccc3c(C(=O)NCC(c4cnc(N5CCCC5)nc4)N4CCOCC4)cccc3n2)CC1 (centres unmarked) [Compound 285]
38	COc1ncc(C(CNC(=O)c2cccc3nc(N4CCCC4)ccc23)N2CCC(F)(F)CC2)cn1 (centres unmarked) [Compound 286]
105	O=C(NCC(c1cnc(N2CCNCC2)nc1)N1CCC(F)(F)CC1)c1cccc2nc(N3CCOCC3)ccc12 (centres unmarked) [Compound 287]
135	CCc1ncc(C(CNC(=O)c2cccc3nc(N4CCCC4)ccc23)N2CCOCC2)cn1 (centres unmarked) [Compound 290]
46.8	CC(C)N1CCN(c2ccc3c(C(=O)NCC(c4cnc(OCC5CC5)nc4)N4CCC(F)(F)CC4)cccc3n2)CC1 (centres unmarked) [Compound 291]
115	CCc1ncc(C(CNC(=O)c2cccc3nc(N4CCN(C(C)C)CC4)ccc23)N2CCC(F)(F)CC2)cn1 (centres unmarked) [Compound 292]
105	O=C(NCC(c1cnc(C2CCCC2)nc1)N1CCC(F)(F)CC1)c1cccc2nc(NCC3CC3)ccc12 (centres unmarked) [Compound 293]
67.6	O=C(NCC(c1cnc(OC2CCC2)nc1)N1CCC(F)(F)CC1)c1cccc2nc(NCC3CC3)ccc12 (centres unmarked) [Compound 294]
32.4	CC(C)N1CCN(c2ccc3c(C(=O)NCC(c4cncnc4)N4CCC(F)(F)CC4)cccc3n2)CC1 (centres unmarked) [Compound 297]
45.7	CCOc1ncc(C(CNC(=O)c2cccc3nc(N4CCN(C(C)C)CC4)ccc23)N2CCC(F)(F)CC2)cn1 (centres unmarked) [Compound 298]
110	CC(C)c1ncc(C(CNC(=O)c2cccc3nc(N4CCN(C(C)C)CC4)ccc23)N2CCC(F)(F)CC2)cn1 (centres unmarked) [Compound 299]
37.2	CC(C)N1CCN(c2ccc3c(C(=O)NCC(c4cnc(OC5CCC5)nc4)N4CCC(F)(F)CC4)cccc3n2)CC1 (centres unmarked) [Compound 300]
166	O=C(NCC(c1cnc(N2CCNCC2)nc1)N1CCC(F)(F)CC1)c1cccc2nc(N3CCCC3)ccc12 (centres unmarked) [Compound 301]
81.3	CC(C)N1CCN(c2ccc3c(C(=O)NCC(c4cnc(N)nc4)N4CCC(F)(F)CC4)cccc3n2)CC1 (centres unmarked) [Compound 302]
52.5	CCOc1ncc(C(CNC(=O)c2cccc3nc(N4CCCC4)ccc23)N2CCOCC2)cn1 (centres unmarked) [Compound 303]
28.2	O=C(NCC(c1cnc(OCC2CC2)nc1)N1CCC(F)(F)CC1)c1cccc2nc(N3CCCC3)ccc12 (centres unmarked) [Compound 304]
100	CC(C)Oc1ncc(C(CNC(=O)c2cccc3nc(N4CCCC4)ccc23)N2CCC(F)(F)CC2)cn1 (centres unmarked) [Compound 305]
46.8	CC(C)Oc1ncc(C(CNC(=O)c2cccc3nc(N4CCN(C(C)C)CC4)ccc23)N2CCC(F)(F)CC2)cn1 (centres unmarked) [Compound 306]
45.7	O=C(NCC(c1cnc(C2CCCC2)nc1)N1CCC(F)(F)CC1)c1cccc2nc(N3CCCC3)ccc12 (centres unmarked) [Compound 307]
49	CC(C)c1ncc(C(CNC(=O)c2cccc3nc(N4CCCC4)ccc23)N2CCC(F)(F)CC2)cn1 (centres unmarked) [Compound 308]
74.1	CC(=O)N1CCN(c2ncc(C(CNC(=O)c3cccc4nc(N5CCN(C(C)C)CC5)ccc34)N3CCC(F)(F)CC3)cn2)CC1 (centres unmarked) [Compound 309]
105	CC(C)N1CCN(c2ccc3c(C(=O)NCC(c4cnc(N5CCNCC5)nc4)N4CCC(F)(F)CC4)cccc3n2)CC1 (centres unmarked) [Compound 312]
151	O=C(NCC(c1cnc(C2CCCC2)nc1)N1CCOCC1)c1cccc2nc(N3CCOCC3)ccc12 (centres unmarked) [Compound 314]

The remaining lines, values behind:

SMILES	IC50 [nM]
O=C(NCC(c1cnc(C(F)(F)F)nc1)N1CCOCC1)c1cccc2nc(NCC3CCCC3)ccc12 (centres unmarked) [Compound 275]	70.8
CC(C)(C)C1CCN(c2ccc3c(C(=O)NCC(c4cnc(C(F)(F)F)nc4)N4CCOCC4)cccc3n2)CC1 (centres unmarked) [Compound 276]	813
CC(C)OC1CCN(c2ccc3c(C(=O)NCC(c4cnc(C(F)(F)F)nc4)N4CCOCC4)cccc3n2)CC1 (centres unmarked) [Compound 277]	46.8
COCC(C)Nc1ccc2c(C(=O)NCC(c3cnc(C(F)(F)F)nc3)N3CCOCC3)cccc2n1 (centres unmarked) [Compound 278]	87.1
CCN(CC)c1ccc2c(C(=O)NCC(c3cnc(C(F)(F)F)nc3)N3CCOCC3)cccc2n1 (centres unmarked) [Compound 279]	77.6
CC(C)CN1CCN(c2ccc3c(C(=O)NCC(c4cnc(C(F)(F)F)nc4)N4CCOCC4)cccc3n2)CC1 (centres unmarked) [Compound 280]	95.5
COCCN1CCN(c2ccc3c(C(=O)NCC(c4cnc(C(F)(F)F)nc4)N4CCOCC4)cccc3n2)CC1 (centres unmarked) [Compound 281]	75.9
CC(C)c1ncc(C(CNC(=O)c2cccc3nc(N4CCN(C(C)C)CC4)ccc23)N2CCOCC2)cn1 (centres unmarked) [Compound 288]	135
CC(C)Oc1ncc(C(CNC(=O)c2cccc3nc(N4CCN(C(C)C)CC4)ccc23)N2CCOCC2)cn1 (centres unmarked) [Compound 289]	64.6
CCc1ncc(C(CNC(=O)c2cccc3nc(N4CCN(C(C)C)CC4)ccc23)N2CCOCC2)cn1 (centres unmarked) [Compound 295]	209
CCc1ncc(C(CNC(=O)c2cccc3nc(NCC4CC4)ccc23)N2CCOCC2)cn1 (centres unmarked) [Compound 296]	123
CCOc1ncc(C(CNC(=O)c2cccc3nc(N4CCN(C(C)C)CC4)ccc23)N2CCOCC2)cn1 (centres unmarked) [Compound 310]	56.2
CCc1ncc(C(CNC(=O)c2cccc3nc(N4CCOCC4)ccc23)N2CCOCC2)cn1 (centres unmarked) [Compound 311]	112
O=C(NCC(c1cnc(OC2CCC2)nc1)N1CCOCC1)c1cccc2nc(N3CCOCC3)ccc12 (centres unmarked) [Compound 313]	117
O=C(NCC(c1cnc(-c2ccccc2)nc1)N1CCOCC1)c1cccc2nc(N3CCOCC3)ccc12 (centres unmarked) [Compound 315]	42.7

target: T2, P2X7 (Homo sapiens, UniProt Q99572); assay: THP-1 YoPro uptake assay (BzATP-stimulated Yo-Pro-1 uptake); format: cell-based; conditions: Table F-10, THP-1 cells, read-out: mean pIC50 values for P2X7 antagonism (converted)
T2 construct: endogenous in cells; host or cells: THP-1 human monocytic cell line
T2 sequence (Q99572 1-595): T1 sequence (Q99572 1-595)
Procedure: The human monocytic cell line THP-1 was grown as a suspension culture in RPMI medium supplemented with 10% fetal bovine serum, penicillin/streptomycin (50 units/mL), 2 mM L-glutamine, and 20 μM 2-mercaptoethanol. Cells were maintained at a density below 0.5 million per mL. On the day of the assay, cells were washed twice with assay buffer, and then resuspended at 2 million per mL in assay buffer containing 2 μM Yo-Pro-1 (Invitrogen). The assay buffer contained (in mM): 280 sucrose, 5 KCl, 10 glucose, 10 HEPES, 5 N-methyl-D-glucamine. The cells were added at 200 k/well into poly-D-lysine-coated black-walled 96-well plates (Biocoat, Becton-Dickinson). Test compounds were dissolved in DMSO, and then added at the test concentration to each well of the 96-well plate. Concentration dependence of block was determined by exposing each well of cells in duplicate rows of a 96-well plate to a serial dilution of test compound. The concentration series usually started at 10 μM with a three-fold decrement in concentration. The final DMSO concentration seen by the cells was less than 0.5%. Cells were incubated with test compounds for 30 minutes at 37° C. A background reading was taken using a Gemini SpectraMax with 490 nm excitation and 530 nm emission. […] After incubation for 60 minutes at 37° C., an endpoint read was taken in the SpectraMax plate reader. The amount of block of the response was determined by comparing the fluorescence intensity in each well to the average of control wells on each plate. The control wells contained either a known antagonist of P2X7 (positive controls) or a concentration of DMSO equal to that in the test wells. Data were analyzed using a nonlinear regression program (Origin, OriginLab, MA). Results are reported as the −log of the IC50 (pIC50).

IC50 [nM]	SMILES
14.8	O=C(NCC(c1cnc(C(F)(F)F)nc1)N1CCC(F)(F)CC1)c1c(Cl)ccc2nc(N3CCOCC3)ccc12 (centres unmarked) [Compound 403]
8.71	CN(C)[C@@H]1CCN(c2ccc3c(C(=O)NCC(c4cnc(C(F)(F)F)nc4)N4CCOCC4)c(Cl)ccc3n2)C1 (some centres unmarked) [Compound 406]
7.41	CN(C)[C@H]1CCN(c2ccc3c(C(=O)NCC(c4cnc(C(F)(F)F)nc4)N4CCOCC4)c(Cl)ccc3n2)C1 (some centres unmarked) [Compound 407]
6.76	CC(C)CN1CCN(c2ccc3c(C(=O)NCC(c4cnc(C(F)(F)F)nc4)N4CCOCC4)c(Cl)ccc3n2)CC1 (centres unmarked) [Compound 408]
3.39	O=C(NCC(c1cnc(C(F)(F)F)nc1)N1CCOCC1)c1c(Cl)ccc2nc(N3CCN(C4CC4)CC3)ccc12 (centres unmarked) [Compound 409]
5.01	CC(C)N1CCN(c2ccc3c(C(=O)NCC(c4cnc(C(F)(F)F)nc4)N4CCOCC4)c(Cl)ccc3n2)CC1 (centres unmarked) [Compound 410]
5.62	CCN1CCN(c2ccc3c(C(=O)NCC(c4cnc(C(F)(F)F)nc4)N4CCOCC4)c(Cl)ccc3n2)CC1 (centres unmarked) [Compound 411]
5.13	CN(C)CCNc1ccc2c(C(=O)NCC(c3cnc(C(F)(F)F)nc3)N3CCOCC3)c(Cl)ccc2n1 (centres unmarked) [Compound 412]
5.13	N[C@@H]1CCCN(c2ccc3c(C(=O)NCC(c4cnc(C(F)(F)F)nc4)N4CCOCC4)c(Cl)ccc3n2)C1 (some centres unmarked) [Compound 413]
4.17	O=C(NCC(c1cnc(C(F)(F)F)nc1)N1CCOCC1)c1c(Cl)ccc2nc(N3CCCCC3)ccc12 (centres unmarked) [Compound 414]
2.4	O=C(NCC(c1cnc(C(F)(F)F)nc1)N1CCOCC1)c1c(Cl)ccc2nc(N3CCCC3)ccc12 (centres unmarked) [Compound 415]
1.74	O=C(NCC(c1cnc(C(F)(F)F)nc1)N1CCOCC1)c1c(Cl)ccc2nc(N3CCC3)ccc12 (centres unmarked) [Compound 416]
